Test results from PubChem BioAssay AID248 (DTP/NCI, 2004).
Several values for one entry are separate records, joined by “and”; a condition that tells them apart may be missing. Identical values can stand only once. Inconclusive results and toxic doses are left out. No stated cut-off is given here; in the data, active means T/C of 150% or more; inactive means T/C below 125%.

System: L1210 leukemia ip in BDF1 mice, survival T/C
Experiment: NCI In Vivo Anticancer Drug Screen. Data for tumor model L1210 Leukemia (intraperitoneal) in B6D2F1 (BDF1) mice
Conditions: endpoint: mean survival time, higher = longer survival
Method in brief: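 Read-out is survival time, reported as the treated-group measurement over the vehicle-control measurement.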

[1] = dose: 100.0 mg/kg/injection, schedule: Q01DX009 (ip), vehicle: Klucel (hydroxypropylcellulose) (HPC)
[2] = dose: 200.0 mg/kg/injection, schedule: Q01DX009 (ip), vehicle: Klucel (hydroxypropylcellulose) (HPC)
[3] = dose: 400.0 mg/kg/injection, schedule: Q01DX009 (ip), vehicle: Klucel (hydroxypropylcellulose) (HPC)
[4] = dose: 100.0 mg/kg/injection, schedule: Q04DX003 (ip), vehicle: Klucel (hydroxypropylcellulose) (HPC)
[5] = dose: 200.0 mg/kg/injection, schedule: Q04DX003 (ip), vehicle: Klucel (hydroxypropylcellulose) (HPC)
[6] = dose: 400.0 mg/kg/injection, schedule: Q04DX003 (ip), vehicle: Klucel (hydroxypropylcellulose) (HPC)
[7] = dose: 100.0 mg/kg/injection, schedule: Q04DX002 (ip), vehicle: Klucel (hydroxypropylcellulose) (HPC)
[8] = dose: 200.0 mg/kg/injection, schedule: Q04DX002 (ip), vehicle: Klucel (hydroxypropylcellulose) (HPC)
[9] = dose: 400.0 mg/kg/injection, schedule: Q04DX002 (ip), vehicle: Klucel (hydroxypropylcellulose) (HPC)
[10] = dose: 50.0 mg/kg/injection, schedule: Q01DX009 (ip), vehicle: Klucel (hydroxypropylcellulose) (HPC)
[11] = dose: 100.0 mg/kg/injection, schedule: Q01DX009 (ip), vehicle: saline
[12] = dose: 100.0 mg/kg/injection, schedule: Q04DX003 (ip), vehicle: saline
[13] = dose: 200.0 mg/kg/injection, schedule: Q01DX009 (ip), vehicle: saline
[14] = dose: 200.0 mg/kg/injection, schedule: Q04DX003 (ip), vehicle: saline
[15] = dose: 400.0 mg/kg/injection, schedule: Q01DX009 (ip), vehicle: saline
[16] = dose: 400.0 mg/kg/injection, schedule: Q04DX003 (ip), vehicle: saline
[17] = dose: 50.0 mg/kg/injection, schedule: Q01DX001 (ip), vehicle: carboxymethylcellulose (CMC)
[18] = dose: 100.0 mg/kg/injection, schedule: Q01DX001 (ip), vehicle: carboxymethylcellulose (CMC)
[19] = dose: 200.0 mg/kg/injection, schedule: Q01DX001 (ip), vehicle: carboxymethylcellulose (CMC)
[20] = dose: 100.0 mg/kg/injection, schedule: Q01DX009 (ip), vehicle: saline with Tween-80
[21] = dose: 200.0 mg/kg/injection, schedule: Q01DX009 (ip), vehicle: saline with Tween-80
[22] = dose: 100.0 mg/kg/injection, schedule: Q04DX003 (ip), vehicle: saline with Tween-80
[23] = dose: 200.0 mg/kg/injection, schedule: Q04DX003 (ip), vehicle: saline with Tween-80
[24] = dose: 400.0 mg/kg/injection, schedule: Q01DX009 (ip), vehicle: saline with Tween-80
[25] = dose: 400.0 mg/kg/injection, schedule: Q04DX003 (ip), vehicle: saline with Tween-80

Measured: T/C

CN(C)c1ccc(/C=C/C(=O)Cc2ccccc2)cc1
inactive: dose: 1.56 mg/kg/injection, schedule: Q04DX002 (ip), vehicle: saline with Tween-80 109 % of control | dose: 3.13 mg/kg/injection, schedule: Q04DX002 (ip), vehicle: saline with Tween-80 103 % of control | dose: 6.25 mg/kg/injection, schedule: Q04DX002 (ip), vehicle: saline with Tween-80 98 % of control | dose: 12.5 mg/kg/injection, schedule: Q04DX002 (ip), vehicle: saline with Tween-80 95 % of control and 98 % of control | dose: 50.0 mg/kg/injection, schedule: Q04DX002 (ip), vehicle: saline with Tween-80 104 % of control | dose: 100.0 mg/kg/injection, schedule: Q04DX002 (ip), vehicle: saline with Tween-80 88 % of control

COc1ccc(/C=N/NC(=O)Nc2ccccc2)cc1OC
inactive: [1] 98 % of control | [2] 89 % of control | [3] 93 % of control

CN(C)C(=S)[S][Pb]([c]1ccccc1)([c]1ccccc1)[c]1ccccc1
inactive: dose: 5.0 mg/kg/injection, schedule: Q01DX001 (ip), vehicle: steriod suspending solution 104 % of control | dose: 10.0 mg/kg/injection, schedule: Q01DX001 (ip), vehicle: steriod suspending solution 100 % of control | dose: 20.0 mg/kg/injection, schedule: Q01DX001 (ip), vehicle: steriod suspending solution 105 % of control | dose: 40.0 mg/kg/injection, schedule: Q01DX001 (ip), vehicle: steriod suspending solution 96 % of control | dose: 80.0 mg/kg/injection, schedule: Q01DX001 (ip), vehicle: steriod suspending solution 102 % of control

C(=N\OCc1ccccc1)/c1ccccn1
inactive: [1] 94 % of control | [4] 96 % of control | [2] 101 % of control | [5] 97 % of control | [3] 100 % of control | [6] 103 % of control

NC(=O)NCN1C(=O)c2ccccc2C1=O
inactive: [7] 100 % of control | [8] 94 % of control | [9] 90 % of control

O=C(Nc1cccc(Cl)c1Cl)N(Cc1ccccc1)Cc1ccccc1
inactive: [1] 108 % of control | [2] 97 % of control | [3] 101 % of control

O=[N+]([O-])c1ccc(Oc2c(Cl)cccc2Cl)cc1
inactive: [4] 96 % of control | [5] 95 % of control | [6] 96 % of control

COC(=O)c1cn(C2OC(CO)C(O)C2O)c2ncnc(N)c12 (centres undefined)
inactive: dose: 20.0 mg/kg/injection, schedule: Q01DX001 (ip), vehicle: water 108 % of control | dose: 40.0 mg/kg/injection, schedule: Q01DX001 (ip), vehicle: water 89 % of control

CSc1nc(C)c(Cl)c(SC)n1
inactive: [10] 101 % of control | [1] 117 % of control | [2] 97 % of control

CC1=CC(=O)OC(C)(C)O1
inactive: [11] 103 % of control | [12] 100 % of control | [13] 101 % of control | [14] 91 % of control | [15] 110 % of control | [16] 98 % of control

Fc1cc(N(CCCl)CCCl)ccc1C1N(Cc2ccc(N(CCCl)CCCl)cc2Cl)CCCN1Cc1ccc(N(CCCl)CCCl)cc1Cl
inactive: [17] 96 % of control | [18] 105 % of control | [19] 96 % of control | dose: 400.0 mg/kg/injection, schedule: Q01DX001 (ip), vehicle: carboxymethylcellulose (CMC) 100 % of control

C[n+]1cccc(C(=O)O)c1
inactive: [17] 95 % of control | [18] 95 % of control | [19] 98 % of control

CCN(C)O
inactive: [11] 109 % of control | [12] 110 % of control | [13] 111 % of control | [14] 105 % of control | [15] 104 % of control | [16] 114 % of control

Cc1ccc(NC(=S)N2CCC(CCCC3CCN(C(=S)Nc4ccc(C)c(C)c4)CC3)CC2)cc1C
inactive: [1] 93 % of control | [4] 88 % of control | [2] 90 % of control | [5] 98 % of control | [3] 90 % of control | [6] 92 % of control

CC1(C)C2CCC1(C)C(Oc1ccccc1)C2 (centres undefined)
inactive: [20] 100 % of control | [21] 98 % of control

CN(C)C1CCCCC1
inactive: dose: 25.0 mg/kg/injection, schedule: Q01DX009 (ip), vehicle: Klucel (hydroxypropylcellulose) (HPC) 105 % of control | [10] 100 % of control | [1] 114 % of control | [4] 117 % of control | [5] 101 % of control | [6] 96 % of control

c1ccc(CC2SCCCS2)cc1
inactive: [20] 103 % of control | [22] 108 % of control | [21] 88 % of control | [23] 95 % of control | [24] 99 % of control | [25] 95 % of control

CC(=O)Nc1cc(C(C)=O)ccc1O
inactive: [4] 106 % of control | [5] 98 % of control | [6] 103 % of control

O=c1[nH]c(NC2OC(CO)C(O)C2O)nc2c1ncn2C1(CO)CC(O)(CO)O1 (centres undefined)
inactive: dose: 100.0 mg/kg/injection, schedule: Q01DX005 (ip), vehicle: saline 93 % of control | dose: 200.0 mg/kg/injection, schedule: Q01DX005 (ip), vehicle: saline 98 % of control

O=C(Nc1ccc(Nc2ccccc2)cc1)Nc1ccccc1C(F)(F)F
inactive: [17] 95 % of control | dose: 50.0 mg/kg/injection, schedule: Q04DX003 (ip), vehicle: carboxymethylcellulose (CMC) 100 % of control | [18] 105 % of control | dose: 100.0 mg/kg/injection, schedule: Q01DX009 (ip), vehicle: carboxymethylcellulose (CMC) 88 % of control | dose: 100.0 mg/kg/injection, schedule: Q04DX002 (ip), vehicle: carboxymethylcellulose (CMC) 102 % of control and 106 % of control | dose: 100.0 mg/kg/injection, schedule: Q04DX003 (ip), vehicle: carboxymethylcellulose (CMC) 93 % of control | [19] 92 % of control | dose: 200.0 mg/kg/injection, schedule: Q01DX009 (ip), vehicle: carboxymethylcellulose (CMC) 86 % of control and 92 % of control | dose: 200.0 mg/kg/injection, schedule: Q04DX002 (ip), vehicle: carboxymethylcellulose (CMC) 94 % of control and 97 % of control | dose: 400.0 mg/kg/injection, schedule: Q01DX009 (ip), vehicle: carboxymethylcellulose (CMC) 92 % of control | dose: 400.0 mg/kg/injection, schedule: Q04DX002 (ip), vehicle: carboxymethylcellulose (CMC) 94 % of control and 92 % of control

O=C1C=CC(=Nc2ccc(Cl)cc2)O1
inactive: [20] 104 % of control | [21] 102 % of control | [24] 97 % of control

CCOc1cc(/C=N/NC(=S)Nc2ccccc2)ccc1O
inactive: [1] 98 % of control | [2] 105 % of control | [3] 94 % of control

CCCCOC(=N)Cc1cc(OC)c(OC)c(OC)c1
inactive: dose: 75.0 mg/kg/injection, schedule: Q04DX003 (ip), vehicle: saline with Tween-80 98 % of control | dose: 150.0 mg/kg/injection, schedule: Q04DX003 (ip), vehicle: saline with Tween-80 92 % of control | dose: 300.0 mg/kg/injection, schedule: Q04DX003 (ip), vehicle: saline with Tween-80 98 % of control

CCC(CC)(CCN)c1ccccc1
inactive: [17] 90 % of control | [18] 93 % of control

O=C(Nc1nccs1)c1ccccc1F
inactive: [7] 87 % of control | [8] 97 % of control | [9] 102 % of control

S=P(CP(c1ccccc1)c1ccccc1)(c1ccccc1)c1ccccc1
inactive: dose: 100.0 mg/kg/injection, schedule: Q04DX002 (sc), vehicle: olive oil, sesame oil, peanut oil 100 % of control | dose: 200.0 mg/kg/injection, schedule: Q04DX002 (sc), vehicle: olive oil, sesame oil, peanut oil 107 % of control | dose: 400.0 mg/kg/injection, schedule: Q04DX002 (sc), vehicle: olive oil, sesame oil, peanut oil 104 % of control

O=C(O)C1(c2ccc(-c3ccccc3)cc2)CCCCC1
inactive: [22] 96 % of control | [23] 96 % of control | [25] 100 % of control
